≈ marks a conversion by molar mass, not a printed value. Calls of active or inactive are those of the source. The rule behind the calls is not given here. Where only a bound is given, the exact number is not on record here.

In data set [1] the test system is Mus musculus. Description: Induction of weight loss in diet-induced obese C57BL/6J mouse assessed as decrease in body weight at 10 mg/kg, po qd measured during 11 day chronic study. The arrangement: scale not given: the % may be the effect or the level left. The format is functional.
Data set [2] is described as follows: Half life in dog at 2 mg/kg, po. The settings on record: in vivo. The arrangement: dose 2 mg/kg, route oral. The format is ADME, organism-based, Canis lupus familiaris.
In data set [3] the target is Prostacyclin receptor (Homo sapiens, UniProt P43119). As to the kind of experiment: Inhibition of prostanoid IP receptor (unknown origin).
Data set [4] is described as follows: AUC in rat at 10 mg/kg, po. The settings on record: plasma. The arrangement: dose 10 mg/kg, route oral. The data set is classed as ADME, organism-based.
The nature of data set [5]: Clearance in rat liver hepatocytes measured per million cells. The data set is classed as ADME, cell-based, Hepatocyte. The conditions noted are these: read-out: CLH.
Data set [6] in a line: Plasma protein binding in mouse. The format is ADME. The settings on record: read-out: PPB.
Data set [7] concerns Mus musculus. As to the kind of experiment: Reduction in triglycerides level in mouse at 3 mg/kg, po after 2 hrs by postprandial triglyceride assay. The format is functional.
Data set [8] in a line: Cmax in monkey at 3 mg/kg, po. The format is ADME, organism-based, Macaca mulatta. The arrangement: dose 3 mg/kg, route oral. The settings on record: rhesus monkey, in vivo.
For data set [9], the target named is T1, Caspase-9 (Homo sapiens, UniProt P55211).
T1 sequence (P55211 whole entry): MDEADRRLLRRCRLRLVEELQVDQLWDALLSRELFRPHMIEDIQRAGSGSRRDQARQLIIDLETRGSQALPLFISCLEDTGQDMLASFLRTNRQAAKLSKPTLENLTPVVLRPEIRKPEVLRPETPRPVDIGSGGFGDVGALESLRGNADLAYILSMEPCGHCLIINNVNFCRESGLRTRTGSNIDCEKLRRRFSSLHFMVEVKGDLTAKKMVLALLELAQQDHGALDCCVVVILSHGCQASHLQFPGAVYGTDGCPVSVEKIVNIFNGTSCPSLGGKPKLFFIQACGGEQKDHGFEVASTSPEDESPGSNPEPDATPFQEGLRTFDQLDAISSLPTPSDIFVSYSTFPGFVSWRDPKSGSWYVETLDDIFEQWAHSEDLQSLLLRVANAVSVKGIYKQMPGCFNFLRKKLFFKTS
Description: Inhibition of CASP9 (unknown origin).

The nature of data set [10]: Cmax in dog at 2 mg/kg, po. The format is ADME, organism-based, Canis lupus familiaris. The arrangement: dose 2 mg/kg, route oral. The settings on record: in vivo.
In data set [11] the target is Caspase-8 (Homo sapiens, UniProt Q14790). Description: Inhibition of CASP8 (unknown origin).
The target in data set [12] is Epidermal growth factor receptor (Homo sapiens, UniProt P00533). Description: Inhibition of EGF receptor (unknown origin).
A short description of data set [13]: AUC in mouse at 1 mg/kg, po. The format is ADME, organism-based. The arrangement: dose 1 mg/kg, route oral. The conditions noted are these: plasma.
Data set [14] is described as follows: Clearance in dog liver hepatocytes measured per million cells. The data set is classed as ADME, Canis lupus familiaris, Hepatocyte. The settings on record: read-out: CLH.
Data set [15] in a line: Inhibition of histamine receptor (unknown origin). The arrangement: species or system Homo sapiens.
Data set [16] in a line: AUC in monkey at 3 mg/kg, po. The arrangement: dose 3 mg/kg, route oral. The format is ADME, organism-based, Macaca mulatta. The settings on record: rhesus monkey, plasma.
Data set [17] deals with Mus musculus. As to the kind of experiment: Induction of weight loss in diet-induced obese C57BL/6J mouse assessed as reduction in food intake at 30 mg/kg, po qd measured during 1 to 4 days. The format is functional, organism-based. The arrangement: dose 30 mg/kg.
Data set [18] is described as follows: Inhibition of serotonin receptor (unknown origin). The arrangement: species or system Homo sapiens.
Data set [19] can be described thus: Half life in monkey at 3 mg/kg, po. The format is ADME, organism-based, Macaca mulatta. The arrangement: dose 3 mg/kg, route oral. The conditions noted are these: rhesus monkey, in vivo.
The nature of data set [20]: Inhibition of CCK receptor (unknown origin). The arrangement: species or system Homo sapiens.
The nature of data set [21]: Cmax in rat at 10 mg/kg, po. The format is ADME, organism-based. The arrangement: dose 10 mg/kg, route oral. The settings on record: in vivo.
Data set [22] is described as follows: Inhibition of purinergic receptor (unknown origin). The arrangement: species or system Homo sapiens.
Data set [23] deals with Hepatocyte. As to the kind of experiment: Clearance in human liver hepatocytes measured per million cells. The format is ADME, cell-based.
Data set [24] has as its target D(2) dopamine receptor (Homo sapiens, UniProt P14416). Description: Inhibition of D2 receptor (unknown origin).
Data set [25] in a line: Permeability in human Caco2 cells. The format is ADME, cell-based. The conditions noted are these: Caco-2, read-out: permeability. On the technique in general: Caco-2 cells form a polarised layer with tight junctions and transporters.
Data set [26] deals with Mus musculus. Description: Reduction in triglycerides level in mouse at 3 mg/kg, po after 12 hrs by postprandial triglyceride assay. The data set is classed as functional.
A short description of data set [27]: Clearance in monkey liver hepatocytes measured per million cells. The data set is classed as ADME, Macaca mulatta, Hepatocyte. The settings on record: rhesus monkey, read-out: CLH.
The test system of data set [28] is Mus musculus. Description: Induction of weight loss in diet-induced obese C57BL/6J mouse assessed as decrease in body weight at 30 mg/kg, po qd measured during 11 day chronic study. The data set is classed as functional. The settings on record: 264 h.
Data set [29] in a line: Plasma protein binding in human. The data set is classed as ADME, cell-free. The settings on record: read-out: PPB.
Data set [30] can be described thus: Solubility in plasma (unknown origin) at pH 7. The data set is classed as ADME, cell-free.
A short description of data set [31]: Cmax in mouse at 1 mg/kg, po. The settings on record: in vivo. The format is ADME, organism-based. The arrangement: dose 1 mg/kg, route oral.
The target of data set [32] is Insulin receptor (Homo sapiens, UniProt P06213). Description: Inhibition of insulin receptor (unknown origin).
Data set [33] has as its target Cannabinoid receptor 1 (Homo sapiens, UniProt P21554). As to the kind of experiment: Inhibition of CB1 receptor (unknown origin).
Data set [34] is described as follows: Clearance in mouse liver hepatocytes measured per million cells. The settings on record: read-out: CLH. The format is ADME, Hepatocyte.
Data set [35] deals with T2, Diacylglycerol O-acyltransferase 1 (Homo sapiens, UniProt O75907).
T2 sequence (O75907 whole entry): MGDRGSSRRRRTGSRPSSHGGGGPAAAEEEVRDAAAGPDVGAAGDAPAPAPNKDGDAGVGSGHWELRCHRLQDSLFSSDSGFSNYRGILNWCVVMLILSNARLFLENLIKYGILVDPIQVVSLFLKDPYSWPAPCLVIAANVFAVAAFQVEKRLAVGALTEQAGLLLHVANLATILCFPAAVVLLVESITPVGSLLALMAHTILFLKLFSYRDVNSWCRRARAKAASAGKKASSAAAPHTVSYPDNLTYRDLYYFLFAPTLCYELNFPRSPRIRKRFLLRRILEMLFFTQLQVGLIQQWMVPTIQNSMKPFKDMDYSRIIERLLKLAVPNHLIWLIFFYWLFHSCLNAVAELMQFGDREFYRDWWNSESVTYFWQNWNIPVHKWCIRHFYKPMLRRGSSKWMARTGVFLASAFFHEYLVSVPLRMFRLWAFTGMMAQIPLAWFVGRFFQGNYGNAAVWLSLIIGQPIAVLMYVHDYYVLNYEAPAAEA
As to the kind of experiment: Inhibition of human DGAT1 expressed in Sf9 insect cells using 1,2-dioleoyl-sn-glycerol and [14C]-palmitoyl-CoA substrate by scintillation counting analysis.

For data set [36], the target named is T3, Diacylglycerol O-acyltransferase 1 (Mus musculus, UniProt Q9Z2A7).
T3 sequence (Q9Z2A7 whole entry): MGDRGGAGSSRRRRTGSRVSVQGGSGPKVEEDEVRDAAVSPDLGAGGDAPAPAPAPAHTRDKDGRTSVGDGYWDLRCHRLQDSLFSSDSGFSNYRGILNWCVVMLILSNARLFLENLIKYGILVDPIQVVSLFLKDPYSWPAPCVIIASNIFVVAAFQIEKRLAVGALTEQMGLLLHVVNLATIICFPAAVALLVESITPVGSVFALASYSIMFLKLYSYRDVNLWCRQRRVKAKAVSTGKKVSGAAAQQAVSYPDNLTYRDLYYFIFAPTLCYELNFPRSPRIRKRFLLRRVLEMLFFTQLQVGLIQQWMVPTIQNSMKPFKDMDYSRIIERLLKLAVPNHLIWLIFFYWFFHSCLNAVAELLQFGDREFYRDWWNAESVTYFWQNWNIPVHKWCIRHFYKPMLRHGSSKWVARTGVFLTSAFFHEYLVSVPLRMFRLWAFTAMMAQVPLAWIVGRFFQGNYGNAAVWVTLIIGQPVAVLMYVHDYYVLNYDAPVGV
Description: Inhibition of mouse DGAT1 expressed in Sf9 insect cells using 1,2-dioleoyl-sn-glycerol and [14C]-palmitoyl-CoA substrate by scintillation counting analysis.

The nature of data set [37]: Half life in mouse at 1 mg/kg, po. The format is ADME, organism-based. The arrangement: dose 1 mg/kg, route oral. The conditions noted are these: in vivo.
Data set [38] in a line: Oral bioavailability in mouse at 1 mg/kg. The format is ADME, organism-based. The conditions noted are these: in vivo.
Data set [39] is described as follows: Oral bioavailability in rat at 10 mg/kg. The format is ADME, organism-based. The conditions noted are these: in vivo.
Data set [40] is described as follows: Half life in rat at 10 mg/kg, po. The settings on record: in vivo. The arrangement: dose 10 mg/kg, route oral. The format is ADME, organism-based.
Data set [41] can be described thus: Inhibition of neuropeptide Y receptor (unknown origin). The arrangement: species or system Homo sapiens.
Data set [42] in a line: AUC in dog at 2 mg/kg, po. The settings on record: plasma. The format is ADME, organism-based, Canis lupus familiaris. The arrangement: dose 2 mg/kg, route oral.

Cannabinoid receptor 1, sequence (P21554 whole entry): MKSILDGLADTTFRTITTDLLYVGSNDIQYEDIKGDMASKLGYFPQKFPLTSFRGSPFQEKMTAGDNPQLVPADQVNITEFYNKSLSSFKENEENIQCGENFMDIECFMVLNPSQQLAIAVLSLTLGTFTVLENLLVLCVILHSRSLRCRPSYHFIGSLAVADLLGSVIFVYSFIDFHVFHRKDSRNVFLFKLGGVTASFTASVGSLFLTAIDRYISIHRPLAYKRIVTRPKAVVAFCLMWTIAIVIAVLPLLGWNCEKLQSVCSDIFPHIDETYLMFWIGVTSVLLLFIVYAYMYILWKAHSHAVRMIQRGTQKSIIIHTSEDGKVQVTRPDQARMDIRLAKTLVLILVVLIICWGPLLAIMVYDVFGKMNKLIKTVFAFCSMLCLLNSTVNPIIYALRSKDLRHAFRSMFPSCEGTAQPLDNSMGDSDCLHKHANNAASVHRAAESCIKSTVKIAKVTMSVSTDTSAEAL
Caspase-8, sequence (Q14790 217-374 limits assumed): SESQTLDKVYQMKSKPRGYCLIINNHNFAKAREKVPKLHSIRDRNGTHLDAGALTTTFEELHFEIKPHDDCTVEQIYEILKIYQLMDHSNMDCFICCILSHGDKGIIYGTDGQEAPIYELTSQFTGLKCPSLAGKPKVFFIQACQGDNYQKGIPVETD
Caspase-8, sequence (Q14790 385-479 limits assumed): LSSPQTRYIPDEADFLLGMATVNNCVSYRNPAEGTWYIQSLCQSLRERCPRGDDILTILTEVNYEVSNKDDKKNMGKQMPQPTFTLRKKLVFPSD
D(2) dopamine receptor, sequence (P14416 whole entry): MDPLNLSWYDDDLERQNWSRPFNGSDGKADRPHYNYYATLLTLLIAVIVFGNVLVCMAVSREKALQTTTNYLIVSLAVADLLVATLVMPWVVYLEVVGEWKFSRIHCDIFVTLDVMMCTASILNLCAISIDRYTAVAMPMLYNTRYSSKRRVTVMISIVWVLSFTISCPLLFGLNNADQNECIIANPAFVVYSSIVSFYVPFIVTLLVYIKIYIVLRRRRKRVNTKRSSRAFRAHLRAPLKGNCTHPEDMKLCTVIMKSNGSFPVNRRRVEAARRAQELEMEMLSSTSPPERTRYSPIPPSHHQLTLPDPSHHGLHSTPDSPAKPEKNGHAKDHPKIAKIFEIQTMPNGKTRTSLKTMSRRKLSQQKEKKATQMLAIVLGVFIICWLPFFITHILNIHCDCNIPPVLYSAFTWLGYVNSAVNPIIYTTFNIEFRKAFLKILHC
Prostacyclin receptor, sequence (P43119 whole entry): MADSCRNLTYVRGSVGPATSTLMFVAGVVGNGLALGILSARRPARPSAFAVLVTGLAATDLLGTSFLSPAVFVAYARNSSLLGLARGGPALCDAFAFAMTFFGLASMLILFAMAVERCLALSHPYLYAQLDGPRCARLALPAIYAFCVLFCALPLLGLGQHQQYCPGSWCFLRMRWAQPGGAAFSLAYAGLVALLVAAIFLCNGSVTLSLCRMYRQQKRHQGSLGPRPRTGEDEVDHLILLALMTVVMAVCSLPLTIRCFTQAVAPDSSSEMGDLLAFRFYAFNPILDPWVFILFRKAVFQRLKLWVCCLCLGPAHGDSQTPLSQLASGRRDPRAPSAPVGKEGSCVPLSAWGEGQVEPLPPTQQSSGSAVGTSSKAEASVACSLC
Insulin receptor, sequence (P06213 28-758 limits assumed): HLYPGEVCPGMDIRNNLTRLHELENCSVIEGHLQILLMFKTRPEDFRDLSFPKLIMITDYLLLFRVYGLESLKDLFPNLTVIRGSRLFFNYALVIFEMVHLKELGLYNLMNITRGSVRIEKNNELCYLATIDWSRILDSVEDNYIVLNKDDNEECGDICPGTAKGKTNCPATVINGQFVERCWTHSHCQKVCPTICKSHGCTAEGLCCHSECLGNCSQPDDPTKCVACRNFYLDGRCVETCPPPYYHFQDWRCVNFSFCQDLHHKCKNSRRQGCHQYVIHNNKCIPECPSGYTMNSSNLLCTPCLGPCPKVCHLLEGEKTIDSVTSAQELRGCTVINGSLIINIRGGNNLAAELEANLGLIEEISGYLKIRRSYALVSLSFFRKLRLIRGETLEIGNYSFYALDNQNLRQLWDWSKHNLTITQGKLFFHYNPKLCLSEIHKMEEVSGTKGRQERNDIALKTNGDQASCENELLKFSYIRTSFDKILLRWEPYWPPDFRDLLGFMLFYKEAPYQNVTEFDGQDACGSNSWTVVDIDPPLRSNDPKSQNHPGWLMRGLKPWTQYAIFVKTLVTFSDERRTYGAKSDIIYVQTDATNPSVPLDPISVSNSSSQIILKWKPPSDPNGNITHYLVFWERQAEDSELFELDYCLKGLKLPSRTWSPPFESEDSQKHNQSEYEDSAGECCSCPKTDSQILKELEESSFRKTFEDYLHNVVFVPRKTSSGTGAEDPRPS
Insulin receptor, sequence (P06213 763-1382 limits assumed): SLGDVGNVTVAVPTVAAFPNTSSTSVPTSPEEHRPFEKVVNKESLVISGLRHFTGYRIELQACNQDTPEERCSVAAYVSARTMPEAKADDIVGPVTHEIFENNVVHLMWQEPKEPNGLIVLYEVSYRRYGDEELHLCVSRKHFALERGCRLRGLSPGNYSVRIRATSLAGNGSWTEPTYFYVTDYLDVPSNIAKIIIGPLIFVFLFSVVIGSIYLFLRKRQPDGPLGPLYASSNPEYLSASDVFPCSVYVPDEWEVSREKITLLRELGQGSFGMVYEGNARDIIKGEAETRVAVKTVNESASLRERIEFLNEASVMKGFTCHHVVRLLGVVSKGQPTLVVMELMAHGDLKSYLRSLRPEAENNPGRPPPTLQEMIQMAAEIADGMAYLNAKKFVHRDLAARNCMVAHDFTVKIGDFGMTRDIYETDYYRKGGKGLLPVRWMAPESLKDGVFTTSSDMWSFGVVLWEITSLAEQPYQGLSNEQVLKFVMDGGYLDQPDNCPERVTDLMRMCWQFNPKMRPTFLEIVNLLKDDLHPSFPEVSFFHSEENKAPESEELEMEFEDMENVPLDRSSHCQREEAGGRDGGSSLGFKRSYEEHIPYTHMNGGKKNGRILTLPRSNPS
Epidermal growth factor receptor, sequence (P00533 whole entry): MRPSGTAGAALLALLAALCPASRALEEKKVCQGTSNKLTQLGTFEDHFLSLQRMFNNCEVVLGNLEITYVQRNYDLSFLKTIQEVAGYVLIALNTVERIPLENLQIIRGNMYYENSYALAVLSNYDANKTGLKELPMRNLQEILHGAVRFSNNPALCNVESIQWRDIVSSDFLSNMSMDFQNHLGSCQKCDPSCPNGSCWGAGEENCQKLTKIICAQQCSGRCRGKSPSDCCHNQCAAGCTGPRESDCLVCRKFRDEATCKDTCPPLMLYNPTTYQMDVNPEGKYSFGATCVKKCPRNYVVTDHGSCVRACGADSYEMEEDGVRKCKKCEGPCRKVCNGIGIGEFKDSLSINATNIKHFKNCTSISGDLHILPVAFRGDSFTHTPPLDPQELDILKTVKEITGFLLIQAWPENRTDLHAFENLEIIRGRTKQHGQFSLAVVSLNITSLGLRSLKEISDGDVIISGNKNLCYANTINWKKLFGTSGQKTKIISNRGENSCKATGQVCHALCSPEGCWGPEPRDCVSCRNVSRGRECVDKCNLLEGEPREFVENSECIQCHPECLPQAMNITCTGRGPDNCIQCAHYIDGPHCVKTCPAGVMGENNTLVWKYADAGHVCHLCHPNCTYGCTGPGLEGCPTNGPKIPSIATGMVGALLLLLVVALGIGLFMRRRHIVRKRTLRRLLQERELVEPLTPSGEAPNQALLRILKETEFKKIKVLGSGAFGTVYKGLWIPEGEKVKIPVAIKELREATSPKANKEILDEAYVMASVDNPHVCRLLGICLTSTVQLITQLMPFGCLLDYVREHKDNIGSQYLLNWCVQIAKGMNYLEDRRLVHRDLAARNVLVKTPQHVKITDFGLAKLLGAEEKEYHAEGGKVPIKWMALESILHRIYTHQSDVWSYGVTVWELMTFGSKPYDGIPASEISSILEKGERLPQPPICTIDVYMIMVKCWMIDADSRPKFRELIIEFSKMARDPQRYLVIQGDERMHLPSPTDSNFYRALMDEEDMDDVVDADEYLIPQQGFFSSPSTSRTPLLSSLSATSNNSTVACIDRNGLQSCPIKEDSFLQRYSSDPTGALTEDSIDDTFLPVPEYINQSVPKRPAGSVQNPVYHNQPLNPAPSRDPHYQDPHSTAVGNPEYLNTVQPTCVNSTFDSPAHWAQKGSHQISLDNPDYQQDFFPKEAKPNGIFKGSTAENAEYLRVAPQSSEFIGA

On to `O=C(Nc1ccc(OC(F)(F)F)cc1)Nc1ccc(-c2ccc(C(=O)[C@@H]3CCC[C@H]3C(=O)O)cc2)cc1F`, for which the Activity in [1] was 2%.
Take `CCc1ccccc1NC(=O)N1C[C@@H](C)Oc2cc(-c3ccc([C@H]4CC[C@H](CC(=O)O)CC4)cc3)ccc21`: the half-life in data set [2] is 3 h; in [19], 3 h; in data set [37], 6.2 h; in data set [40], 3 h. Besides, the IC50 in data set [3] was 1 µM; in [9], 5 µM; in data set [11], 6.8 µM; in data set [12] it was 7.5 µM; in data set [15] it was over 10 µM; in data set [18] it was over 10 µM. The IC50 in [20] is over 10 µM; in data set [22], over 10 µM; in data set [24] it was over 10 µM; in data set [32], 5.7 µM; in data set [33] it was over 10 µM; in data set [35], 0.064 µM. In addition, the IC50 in data set [36] was 0.044 µM; in data set [41], over 10 µM. For the same compound, the AUC in data set [4] came to 41 µM·h; in data set [13], 3.7 µM·h; in data set [16], 64 µM·h; in [42], 23 µM·h. For the same compound, the hepatocyte CLint in data set [5] was 10 µL/min/1e6 cells; in [14], 16 µL/min/1e6 cells; in data set [27] it was 14 µL/min/1e6 cells; in [34], 6.2 µL/min/1e6 cells. Also, the fraction unbound in data set [6] and in data set [29] was under 0.005 in each case. Also, the inhibition in vivo at 3 mg/kg amounted to 93% in data set [7] and 87% in data set [26]. For the same compound, the Cmax was 5.7 µM in [8], 3.3 µM in [10], 9.1 µM in data set [21] and 0.6 µM in [31]. Besides, in data set [17], the result was Active. Also, the CLH in data set [23] amounted to 14 µL/min/1e6 cells. Further, in data set [25], the Papp was found to be 20.1 ×10⁻⁶ cm/s. Moreover, the inhibition in vivo at 30 mg/kg in data set [28] was over 5%. The solubility in data set [30] was determined as 50 µM (≈ 25.6 µg/mL). The results for the bioavailability in [38] and in data set [39] were 89% and 75%, respectively.

By half-life is commonly meant how long it takes for the measured level to halve. What is called IC50 is the concentration needed to halve the response being measured. As usually defined, the AUC is concentration integrated over time. The term inhibition in vivo denotes the relative decrease from the control value, in per cent. As usually defined, the Cmax is the peak of the concentration-time curve. As a reminder, the solubility is the dissolved amount per volume that the medium holds. Usually bioavailability stands for dose-corrected exposure relative to a reference, in per cent.

Source of the values: ChEMBL document CHEMBL3286266, “Development of novel benzomorpholine class of diacylglycerol acyltransferase I inhibitors” (ACS Med Chem Lett, 2014).
